From patent US7288258B2, “Polyepitopic protein fragments of the E6 and E7 proteins of HPV, their production and their use particularly in vaccination” (Peptide Immune Ligands, priority 1999, dated 2007)

How the values were obtained:
Experiment in all cases: association of peptide with HLA molecules and stability of the complex
Details in all cases: stable complex: peptide remains bound for at least about 3 hours at 37° C.
[1] = tested on: HLA molecules of the B18 type; assay type: binding, human
Excerpt: (§1) The different epitopes of the polyepitopic region of the predetermined protein, and delimiting the epitopic protein fragments, are preferably selected from the peptides; • binding to a predetermined molecule of MCH, particularly to a molecule of the predetermined HLA type, and this from concentrations of about 10^−6 M to about 10^−10 M in peptide for concentrations of about 10^−7 M of HLA molecules, particularly under the conditions described hereafter, • and forming a stable complex with said MCH molecule, namely particularly a complex in which said peptide remains bound to said molecule for at least about 3 hours at 37° C.
(§2) By way of illustration, the above-mentioned epitopes of the invention are selected from among the peptides adapted: • on the one hand of associating with the molecules of MCH, particularly by using the following method: • incubation (particularly for about 2 hours at 25° C., then about 15 hours at 4° C.) of the peptide in the presence of MCH molecules, from the lysis of human or animal cells, or purified particularly by affinity chromatography from human or animal cell lines, • trapping complexes formed during the preceding step on a solid support covered with a first antibody, particularly monoclonal, recognizing specifically the CMH molecules in their configuration dependent on their connection to said peptide, • addition to the preceding solid support of a second marked antibody, particularly by coupling to a radioactive, enzymatic or fluorescent marker, said marked antibody recognizing specifically either the long chains of MCH in their configuration dependent on their connection to the peptide, or the short chain of MCH or the β2-microglobulin binding specifically to the different long chains of the MCH in their above-mentioned configuration, • detection, after rinsing of the solid support, of the possible presence of the second marked antibody remaining fixed on the solid support, signifying an association effect between the molecules of MCH and the peptide studied, • and, on the other hand, forming a complex with said MCH molecules, whose stability can be evaluated by the use of a method of following according to time the connection established between the peptide and the MCH molecules, this method being preferably carried out according to a protocol identical to the preceding method, but in which the incubation step of the peptide in the presence of MCH molecules on the solid support covered with said first antibody, is preceded by a preliminary step of eliminating the free peptide adapted that may be present in the reaction medium, particularly by washing the solid support, said incubation step being carried out (preferably at a temperature of 37° C.) for variable times of 1 hours, 3 hours, 5 hours, 24 hours and 48 hours.
(§3) As mentioned above, the epitopes of the invention should be recognized by the T cells in association with the MCH molecules and associate with these latter, particularly in the framework of the practice of the recognition test described above. This association can be weak (detectable at concentrations of peptide analogs of the order of 10^−4 to 10^−5 M), intermediate (detectable at concentrations of peptide analogs of the order of 10^−6 to 10^−7 M), or strong (detectable at concentrations of peptide analogs of the order of 10^−8 to 10^−9 M). The peptides associated with the MCH molecules in the scope of the present invention are preferably adapted to bond during at least about 3 hours, to said MCH molecules.

[2] = tested on: HLA molecules of the B8 type; assay type: binding, human
Excerpt: as §1, §2, §3

[3] = tested on: HLA molecules of the B51 type; assay type: binding, human
Excerpt: as §1, §2, §3

[4] = tested on: HLA molecules of the B35 type; assay type: binding, human
Excerpt: as §1, §2, §3

[5] = molecular target: T1, HLA molecules of the B7 type (Homo sapiens, UniProt P01889); assay type: binding
T1 construct: endogenous in cells
Excerpt: as §1, §2, §3

[6] = tested on: HLA molecules of the A2 type; assay type: binding, human
Excerpt: as §1, §2, §3

[7] = tested on: HLA molecules of the A1 type; assay type: binding, human
[8] = tested on: HLA molecules of the B62 type; assay type: binding, human
Excerpt: as §1, §2, §3

T1 sequence (P01889 25-362): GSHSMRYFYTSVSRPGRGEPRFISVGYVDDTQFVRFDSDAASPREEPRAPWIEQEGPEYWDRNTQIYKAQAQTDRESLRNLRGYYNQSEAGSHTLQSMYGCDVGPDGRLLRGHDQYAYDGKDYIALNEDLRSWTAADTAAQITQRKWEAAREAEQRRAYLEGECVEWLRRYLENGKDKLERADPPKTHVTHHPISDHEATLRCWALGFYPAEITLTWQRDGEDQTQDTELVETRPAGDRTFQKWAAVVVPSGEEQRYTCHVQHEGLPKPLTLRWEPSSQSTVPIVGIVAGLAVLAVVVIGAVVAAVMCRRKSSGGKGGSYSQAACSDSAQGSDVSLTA
T1 sequence (P61769 21-119, further chain): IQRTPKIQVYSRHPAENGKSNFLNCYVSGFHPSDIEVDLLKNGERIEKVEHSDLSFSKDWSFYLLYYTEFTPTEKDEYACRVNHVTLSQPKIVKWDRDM

Sequence | binding stably to HLA molecules of the B18 type [1] | binding stably to HLA molecules of the B8 type [2] | binding stably to HLA molecules of the B62 type [8] | also measured
CPEEKQRHL (Human Papillomavirus) | binding stably | binding stably | – | binding stably to HLA molecules of the B51 type [3]: binding stably; binding stably to HLA molecules of the B35 type [4]: binding stably
CVYCKQQL (Human Papillomavirus) | – | binding stably | – | –
DKKQRFHNI (Human Papillomavirus) | – | binding stably | – | –
FAFRDLCIV (Human Papillomavirus) | – | – | – | binding stably to HLA molecules of the B7 type [5]: binding stably; binding stably to HLA molecules of the B51 type [3]: binding stably; binding stably to HLA molecules of the A2 type [6]: binding stably; binding stably to HLA molecules of the B35 type [4]: binding stably
ISEYRHYCY (Human Papillomavirus) | binding stably | – | – | binding stably to HLA molecules of the A1 type [7]: binding stably
KPLCDLLI (Human Papillomavirus) | – | – | – | binding stably to HLA molecules of the B7 type [5]: binding stably; binding stably to HLA molecules of the B51 type [3]: binding stably; binding stably to HLA molecules of the B35 type [4]: binding stably
LQPETTDLY (Human Papillomavirus) | – | – | binding stably | –
NLLGRNSF (listed as Homo sapiens) | – | – | binding stably | –
NTFRHSVVV | – | binding stably | – | –
QAEPDRAHY (Human Papillomavirus) | binding stably | – | – | binding stably to HLA molecules of the A1 type [7]: binding stably
QPETTDLYCY (Human Papillomavirus) | binding stably | – | – | binding stably to HLA molecules of the A1 type [7]: binding stably
RVRAMAIY (listed as Homo sapiens) | – | – | binding stably | –
TAKSVTCTY (listed as Homo sapiens) | – | – | binding stably | –
